We go through 4 compounds from ChEMBL document CHEMBL4680277, “Targeting Metabolism of Extracellular Nucleotides via Inhibition of Ectonucleotidases CD73 and CD39” (J Med Chem, 2020).

For assay [1], the target named is T1, Ectonucleoside triphosphate diphosphohydrolase 1 (Rattus norvegicus, UniProt P97687).
T1 sequence (P97687 whole entry): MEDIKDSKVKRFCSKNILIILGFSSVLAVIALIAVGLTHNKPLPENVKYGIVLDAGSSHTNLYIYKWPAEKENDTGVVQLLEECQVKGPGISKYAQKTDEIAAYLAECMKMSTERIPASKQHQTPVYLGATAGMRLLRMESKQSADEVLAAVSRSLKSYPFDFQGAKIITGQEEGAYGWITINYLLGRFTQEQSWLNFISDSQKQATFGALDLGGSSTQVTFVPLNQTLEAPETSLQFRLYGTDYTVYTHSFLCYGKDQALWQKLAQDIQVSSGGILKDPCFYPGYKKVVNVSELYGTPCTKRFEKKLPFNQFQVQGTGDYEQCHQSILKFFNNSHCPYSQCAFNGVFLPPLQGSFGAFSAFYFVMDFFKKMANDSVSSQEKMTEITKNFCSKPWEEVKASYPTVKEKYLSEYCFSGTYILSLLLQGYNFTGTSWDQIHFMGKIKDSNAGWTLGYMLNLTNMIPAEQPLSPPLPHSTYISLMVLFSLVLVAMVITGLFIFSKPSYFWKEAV
Description: Inhibition of rat CD39 expressed in CHO cells using ATP as substrate incubated for 10 mins by UV absorbance method. The conditions noted are these: cho. Format: cell-based.

Assay [2] addresses T2, Ectonucleoside triphosphate diphosphohydrolase 2 (Rattus norvegicus, UniProt O35795).
T2 sequence (O35795 whole entry): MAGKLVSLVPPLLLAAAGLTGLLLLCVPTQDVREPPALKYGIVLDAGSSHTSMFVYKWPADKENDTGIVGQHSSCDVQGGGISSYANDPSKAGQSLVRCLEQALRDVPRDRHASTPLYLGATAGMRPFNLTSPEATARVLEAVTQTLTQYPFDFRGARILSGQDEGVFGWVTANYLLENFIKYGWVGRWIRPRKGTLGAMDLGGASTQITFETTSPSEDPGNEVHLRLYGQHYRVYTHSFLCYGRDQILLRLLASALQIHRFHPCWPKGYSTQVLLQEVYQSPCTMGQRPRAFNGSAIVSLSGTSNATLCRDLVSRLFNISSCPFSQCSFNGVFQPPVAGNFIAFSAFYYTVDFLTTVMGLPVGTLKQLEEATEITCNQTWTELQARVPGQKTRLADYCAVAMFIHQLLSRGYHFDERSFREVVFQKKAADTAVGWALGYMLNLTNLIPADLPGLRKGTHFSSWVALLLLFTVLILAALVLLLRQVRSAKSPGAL
As to the kind of experiment: Inhibition of rat NTPDase2 expressed in CHO cells using ATP as substrate incubated for 10 mins by UV absorbance method. The assay is classed as cell-based. Conditions: cho.

Assay [3] can be described thus: Inhibition of rat NTPDase3 expressed in CHO cells using ATP as substrate incubated for 10 mins by UV absorbance method. Format: cell-based.
Assay [4] can be described thus: Selectivity ratio of Ki for rat NTPDase2 expressed in CHO cells to Ki for rat CD39 expressed in CHO cells.
A short description of assay [5]: Selectivity ratio of Ki for rat NTPDase3 expressed in CHO cells to Ki for rat CD39 expressed in CHO cells.
Assay [6] deals with T3, Ectonucleoside triphosphate diphosphohydrolase 8 (Homo sapiens, UniProt Q5MY95).
T3 sequence (Q5MY95 whole entry): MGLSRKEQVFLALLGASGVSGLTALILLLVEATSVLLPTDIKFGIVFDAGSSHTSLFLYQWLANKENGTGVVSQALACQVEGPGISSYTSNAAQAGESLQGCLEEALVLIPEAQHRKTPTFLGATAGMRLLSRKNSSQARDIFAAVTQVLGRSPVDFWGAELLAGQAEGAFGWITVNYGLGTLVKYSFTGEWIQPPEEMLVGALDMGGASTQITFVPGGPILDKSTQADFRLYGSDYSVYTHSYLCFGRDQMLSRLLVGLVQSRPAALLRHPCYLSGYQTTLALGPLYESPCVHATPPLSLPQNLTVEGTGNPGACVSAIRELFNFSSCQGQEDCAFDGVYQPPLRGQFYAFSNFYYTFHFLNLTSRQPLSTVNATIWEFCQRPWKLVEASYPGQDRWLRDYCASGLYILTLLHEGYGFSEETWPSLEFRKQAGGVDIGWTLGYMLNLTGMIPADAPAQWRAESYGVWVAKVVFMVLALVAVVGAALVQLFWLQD
Description: Inhibition of human NTPDase8 expressed in green monkey Cos-7 cells using ATP as substrate preincubated for 3 mins followed by substrate addition by malachite green reagent based assay. Format: cell-based.

In assay [7] the target is T4, Ectonucleoside triphosphate diphosphohydrolase 1 (Mus musculus, UniProt P55772).
T4 sequence (P55772 whole entry): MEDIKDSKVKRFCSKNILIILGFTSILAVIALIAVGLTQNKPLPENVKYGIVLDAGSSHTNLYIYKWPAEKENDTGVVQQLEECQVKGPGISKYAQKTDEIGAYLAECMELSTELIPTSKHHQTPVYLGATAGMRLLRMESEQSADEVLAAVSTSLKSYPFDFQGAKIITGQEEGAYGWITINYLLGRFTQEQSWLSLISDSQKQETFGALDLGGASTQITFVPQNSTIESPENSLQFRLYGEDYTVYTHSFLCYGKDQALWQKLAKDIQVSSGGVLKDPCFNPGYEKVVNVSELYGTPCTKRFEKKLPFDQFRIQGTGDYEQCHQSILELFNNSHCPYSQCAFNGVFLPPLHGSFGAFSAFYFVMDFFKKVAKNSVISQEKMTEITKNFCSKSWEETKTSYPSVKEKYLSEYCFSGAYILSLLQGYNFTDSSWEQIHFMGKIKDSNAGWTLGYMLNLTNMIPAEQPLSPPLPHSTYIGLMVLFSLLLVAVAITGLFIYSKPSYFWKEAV
As to the kind of experiment: Inhibition of mouse CD39 expressed in green monkey Cos-7 cells using ATP as substrate preincubated for 3 mins followed by substrate addition by malachite green reagent based assay. Format: cell-based.

In assay [8] the target is T5, Ectonucleoside triphosphate diphosphohydrolase 1 (Homo sapiens, UniProt P49961).
T5 sequence (P49961 whole entry): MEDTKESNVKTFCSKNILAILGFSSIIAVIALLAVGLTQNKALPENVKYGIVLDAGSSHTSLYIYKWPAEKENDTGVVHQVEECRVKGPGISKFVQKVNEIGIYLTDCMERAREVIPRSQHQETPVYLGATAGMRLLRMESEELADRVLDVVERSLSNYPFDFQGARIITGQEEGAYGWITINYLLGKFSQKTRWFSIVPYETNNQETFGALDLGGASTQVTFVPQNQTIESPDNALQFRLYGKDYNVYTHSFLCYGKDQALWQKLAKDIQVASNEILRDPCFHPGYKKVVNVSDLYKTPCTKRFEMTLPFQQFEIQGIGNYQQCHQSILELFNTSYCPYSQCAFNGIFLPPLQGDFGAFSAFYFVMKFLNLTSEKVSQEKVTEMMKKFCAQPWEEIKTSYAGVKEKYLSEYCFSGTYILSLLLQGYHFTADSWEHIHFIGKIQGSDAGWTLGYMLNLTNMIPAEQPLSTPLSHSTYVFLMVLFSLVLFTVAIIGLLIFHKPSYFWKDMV
As to the kind of experiment: Inhibition of human CD39 using ATP as substrate preincubated for 3 mins followed by substrate addition and measured after 10 to 15 mins by Cheng-Prusoff analysis. Conditions: read-out: Ki(app).

The target of assay [9] is T5, Ectonucleoside triphosphate diphosphohydrolase 1. Description: Inhibition of human CD39 using ATP as substrate preincubated for 3 mins followed by substrate addition and measured after 10 to 15 mins by Malachite green reagent based assay.
The target in assay [10] is T6, Ectonucleoside triphosphate diphosphohydrolase 3 (Homo sapiens, UniProt O75355).
T6 sequence (O75355 whole entry): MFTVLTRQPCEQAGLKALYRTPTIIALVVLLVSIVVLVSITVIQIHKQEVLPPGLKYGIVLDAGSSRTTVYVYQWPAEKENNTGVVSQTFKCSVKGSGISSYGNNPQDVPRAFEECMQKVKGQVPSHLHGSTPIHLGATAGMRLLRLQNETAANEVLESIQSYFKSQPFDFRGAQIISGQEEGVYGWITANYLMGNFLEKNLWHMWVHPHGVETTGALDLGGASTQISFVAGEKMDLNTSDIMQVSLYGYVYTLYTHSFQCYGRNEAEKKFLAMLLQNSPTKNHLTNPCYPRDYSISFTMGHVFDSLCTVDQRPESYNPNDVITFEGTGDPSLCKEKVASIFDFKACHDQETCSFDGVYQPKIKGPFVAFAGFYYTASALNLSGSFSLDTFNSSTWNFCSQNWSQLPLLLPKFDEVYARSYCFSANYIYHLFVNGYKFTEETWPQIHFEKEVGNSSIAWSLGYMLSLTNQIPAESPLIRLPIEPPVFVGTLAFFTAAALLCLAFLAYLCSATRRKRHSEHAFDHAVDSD
As to the kind of experiment: Competitive inhibition of human NTPDase3 using ATP as substrate preincubated for 3 mins followed by substrate addition and measured after 15 mins by Dixon and Cornish-Bowden plot analysis.

One may read the IC50 as the concentration at which inhibition is half-maximal.

For `Nc1c(S(=O)(=O)[O-])cc(Nc2ccc3ccccc3c2)c2c1C(=O)c1ccccc1C2=O.[Na+]`, the values for the Ki in assay [1], in assay [2] and in assay [3] were 0.328 µM, 19.1 µM and 2.22 µM, respectively. Besides, the “Ratio Ki” value in [4] was 58; in assay [5], 7.
Take `Cc1ccc(C(=O)Nc2ccc(S(=O)(=O)O)c3cc(S(=O)(=O)O)cc(S(=O)(=O)O)c23)cc1NC(=O)c1cccc(NC(=O)Nc2cccc(C(=O)Nc3cc(C(=O)Nc4ccc(S(=O)(=O)O)c5cc(S(=O)(=O)O)cc(S(=O)(=O)O)c45)ccc3C)c2)c1` [SURAMIN]: the IC50 in assay [6] and in assay [7] was more than 100 µM in each case.
`CCCCSc1nc2c(N)ncnc2n1[C@@H]1O[C@H](COP(=O)(O)OP(=O)(O)OP(=O)(O)O)[C@@H](O)[C@H]1O`: the Ki in assay [8] turned out to be 0.8 µM. Besides, the IC50 in assay [9] was determined as 5.6 µM.
The compound `CCN(CC)c1ncnc2c1ncn2[C@@H]1O[C@H](COP(=O)(O)OP(=O)(O)C(Br)(Br)P(=O)(O)O)[C@@H](O)[C@H]1O` came in with a Ki in assay [10] of 18 µM.
